# Measured values reported in patent US20070197512A1, “Carboxylic Acid Compounds and Use Thereof” (Japan Tobacco Inc., priority 2006, published 2007).
# Molecular target: T1, human URAT1 (Homo sapiens, UniProt Q96S37)
# T1 construct: Human URAT1 full length cDNA was subcloned to expression vector pcDNA3.1; expressed in transfected cells; host or cells: HEK293 cells (pcDNA3.1, geneticin-selected)
# T1 sequence (Q96S37 1-553): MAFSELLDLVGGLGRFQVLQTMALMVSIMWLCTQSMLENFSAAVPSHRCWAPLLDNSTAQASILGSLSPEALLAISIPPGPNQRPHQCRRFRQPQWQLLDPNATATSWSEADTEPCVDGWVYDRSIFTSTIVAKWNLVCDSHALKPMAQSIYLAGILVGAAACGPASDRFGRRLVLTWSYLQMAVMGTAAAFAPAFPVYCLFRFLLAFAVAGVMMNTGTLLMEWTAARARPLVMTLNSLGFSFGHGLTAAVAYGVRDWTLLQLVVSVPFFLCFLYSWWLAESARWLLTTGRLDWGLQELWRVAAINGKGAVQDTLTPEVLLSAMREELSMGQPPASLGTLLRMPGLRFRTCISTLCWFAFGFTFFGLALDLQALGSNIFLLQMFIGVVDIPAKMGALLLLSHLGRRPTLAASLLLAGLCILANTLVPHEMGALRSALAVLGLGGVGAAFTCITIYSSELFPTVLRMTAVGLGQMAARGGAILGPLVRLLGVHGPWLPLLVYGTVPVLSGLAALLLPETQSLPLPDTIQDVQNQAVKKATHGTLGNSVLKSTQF
# Assay: Uric acid transport inhibitory test using human URAT1-expressing cells
# Assay type: cell-based
# Conditions: human URAT1-expressing HEK293 cells, 14C-uric acid 50 μM, uptake 5 min, room temperature; read-out: hURAT1 IC50
# Text: Experimental Example 1 Uric Acid Transport Inhibitory Test Using Human URAT1-Expressing Cells
# Human URAT1 full length cDNA was subcloned to expression vector pcDNA3.1 and human URAT1 gene was transfected into human embryonic kidney derived cell line (HEK293 cells) by liposome method using Lipofectamine2000. Simultaneously, HEK293 cells transfected with expression vector pcDNA3.1 alone (hereinafter mock cells) were also produced. HEK293 cells expressing human URAT1 gene or mock cells were selected with geneticin resistance as an index. The functional expression of human URAT1 gene was confirmed by a method similar to the following method, using ^14C-uric acid transport into the cells as an index.
# Human URAT1-expressing HEK293 cells or mock cells were cultured in Dulbecco's modified Eagle's MEM medium (high glucose) containing 10% fetal bovine serum, 0.5 mg/mL geneticin sulfate, 100 units/mL penicillin and 100 μg/mL streptomycin under the conditions of 37° C. and 5% CO2 in an incubator. The cells were plated in a 96 well plate (poly-D-Lysine coated) at 1×10^5 cells/well and the following uric acid transport inhibitory test was performed 24 hr later. This test was performed at room temperature.
# After the medium was removed by aspiration from each well, the cells were washed once with Hank's Balanced Salt Solution (HBSS) and preincubated with HBSS (100 μL/well) for 5 min. HBSS was aspirated and an assay buffer (wherein NaCl in the above-mentioned HBSS had been substituted with Na-gluconate) containing various concentrations of the Example compound and a radioactive ligand (14C-uric acid; final concentration 50 μM) was added to each well at 50 μL/well and an uptake reaction was carried out for 5 min. After the reaction, the cells were washed twice with ice-cold HBSS (150 μL/well), and Microscinti™ 20 (PerkinElmer) was added at 50 μL/well. The cells were lysed by stirring and the radioactivity of each well was measured by a liquid scintillation counter (TOP COUNT, Packard).
# The uric acid transport rate (%) of the Example compound at each concentration was calculated relative to the radioactivity (difference in radioactivity between human URAT1-expressing HEK293 cells and mock cells without addition of Example compound (DMSO addition)) showing URAT1 specific uric acid transport as 100%, and the concentration (IC50) of the Example compound necessary for inhibiting the uric acid transport rate by 50% was determined. In Table 24-Table 27, “+++” means IC50 value of less than 300 nM, “++” means IC50 value of 300 nM to less than 3000 nM, and “+” means IC50 value of not less than 3000 nM.
row,SMILES,IC50 [µM]
1,"COC(=O)CN1C(=O)COc2ccccc21 [Example 1, (3-oxo-2,3-dihydrobenzo[1,4]oxazin-4-yl)acetic acid methyl ester]",≥ 3
2,"COC(=O)CN1C(=O)CSc2ccccc21 [Example 2, (3-oxo-2,3-dihydrobenzo[1,4]thiazin-4-yl)acetic acid methyl ester]",≥ 3
3,"CC(C)c1cccc2c1O[C@H](C(C)C)C(=S)N2CC(=O)O [Example 8, ((R)-2,8-diisopropyl-3-thioxo-2,3-dihydrobenzo[1,4]oxazin-4-yl)acetic acid]",0.3 to 3
4,"O=C(O)CN1C(=S)CSc2ccccc21 [Example 12, (3-thioxo-2,3-dihydrobenzo[1,4]thiazin-4-yl)acetic acid]",≥ 3
5,"CC(C)C1Oc2ccccc2N(CC(=O)O)C1=S (stereo not shown) [Example 13, (2-isopropyl-3-thioxo-2,3-dihydrobenzo[1,4]oxazin-4-yl)acetic acid]",≥ 3
6,"CC(C)c1cccc2c1OCC(=S)N2CC(=O)O [Example 15, (8-isopropyl-3-thioxo-2,3-dihydrobenzo[1,4]oxazin-4-yl)acetic acid]",≥ 3
7,"CC(C)c1cccc2c1OC(C(C)C)C(=O)N2CCCC(=O)O (stereo not shown) [Example 18, 4-(2,8-diisopropyl-3-oxo-2,3-dihydrobenzo[1,4]oxazin-4-yl)butyric acid]",≥ 3
8,"O=C(O)CCCC(=O)N1CCOc2ccccc21 [Example 24, 5-(2,3-dihydrobenzo[1,4]oxazin-4-yl)-5-oxovaleric acid]",≥ 3
9,"O=C(O)/C=C\C(=O)N1CCOc2ccccc21 [Example 25, (Z)-4-(2,3-dihydrobenzo[1,4]oxazin-4-yl)-4-oxo-2-butenoic acid]",≥ 3
10,"CC(C)c1cccc2c1OC(c1ccccc1)C(=O)N2CC(=O)O (stereo not shown) [Example 26, (8-isopropyl-3-oxo-2-phenyl-2,3-dihydrobenzo[1,4]oxazin-4-yl)acetic acid]",≥ 3
11,"O=C(O)/C=C/C(=O)N1CCOc2ccccc21 [Example 28, (E)-4-(2,3-dihydrobenzo[1,4]oxazin-4-yl)-4-oxo-2-butenoic acid]",≥ 3
12,"CC(C)C1Sc2ccccc2N(CC(=O)O)C1=O (stereo not shown) [Example 30, (2-isopropyl-3-oxo-2,3-dihydrobenzo[1,4]thiazin-4-yl)acetic acid]",≥ 3
13,"CC(C)c1cccc2c1OC(C(C)C)CN2C(=O)CC(=O)O (stereo not shown) [Example 31, 3-(2,8-diisopropyl-2,3-dihydrobenzo[1,4]oxazin-4-yl)-3-oxopropionic acid]",≥ 3
14,"CC(C)C1Oc2ccccc2N(CCC(=O)O)C1=O (stereo not shown) [Example 32, 3-(2-isopropyl-3-oxo-2,3-dihydrobenzo[1,4]oxazin-4-yl)propionic acid]",≥ 3
15,"CC(C)c1cccc2c1OC(C)(C)C(=O)N2CCC(=O)O [Example 33, 3-(8-isopropyl-2,2-dimethyl-3-oxo-2,3-dihydrobenzo[1,4]oxazin-4-yl)propionic acid]",≥ 3
16,"CC(C)c1cccc2c1OC(C)(C)C(=O)N2CC(=O)O [Example 34, (8-isopropyl-2,2-dimethyl-3-oxo-2,3-dihydrobenzo[1,4]oxazin-4-yl)acetic acid]",≥ 3
17,"CC(C)c1cccc2c1OCC(=O)N2CCC(=O)O [Example 35, 3-(8-isopropyl-3-oxo-2,3-dihydrobenzo[1,4]oxazin-4-yl)propionic acid]",≥ 3
18,"CCC1Oc2c(C(C)C)cccc2N(CC(=O)O)C1=O (stereo not shown) [Example 39, (2-ethyl-8-isopropyl-3-oxo-2,3-dihydrobenzo[1,4]oxazin-4-yl)acetic acid]",≥ 3
19,"Cc1ccc2c(c1)OC(C(C)C)C(=O)N2CCC(=O)O (stereo not shown) [Example 43, 3-(2-isopropyl-7-methyl-3-oxo-2,3-dihydrobenzo[1,4]oxazin-4-yl)propionic acid]",0.3 to 3

# The remaining lines, values ahead:
row,IC50 [µM],SMILES
1,≥ 3,"O=C(O)CN1C(=O)COc2ccccc21 [Example 3, (3-oxo-2,3-dihydrobenzo[1,4]oxazin-4-yl)acetic acid]"
2,≥ 3,"O=C(O)CN1C(=O)CSc2ccccc21 [Example 4, (3-oxo-2,3-dihydrobenzo[1,4]thiazin-4-yl)acetic acid]"
3,≥ 3,"CC1(C)Oc2ccccc2N(CC(=O)O)C1=O [Example 5, (2,2-dimethyl-3-oxo-2,3-dihydrobenzo[1,4]oxazin-4-yl)acetic acid]"
4,≥ 3,"CC(C)C1Oc2ccccc2N(CC(=O)O)C1=O (stereo not shown) [Example 6, (2-isopropyl-3-oxo-2,3-dihydrobenzo[1,4]oxazin-4-yl)acetic acid]"
5,0.3 to 3,"CC(C)c1cccc2c1O[C@@H](C(C)C)C(=S)N2CC(=O)O [Example 7, ((S)-2,8-diisopropyl-3-thioxo-2,3-dihydrobenzo[1,4]oxazin-4-yl)acetic acid]"
6,≥ 3,"CC(C)c1cccc2c1OCC(=O)N2CC(=O)O [Example 10, (8-isopropyl-3-oxo-2,3-dihydrobenzo[1,4]oxazin-4-yl)acetic acid]"
7,≥ 3,"CC1(C)Oc2ccccc2N(CC(=O)O)C1=S [Example 11, (2,2-dimethyl-3-thioxo-2,3-dihydrobenzo[1,4]oxazin-4-yl)acetic acid]"
8,≥ 3,"O=C(O)CN1C(=S)COc2ccccc21 [Example 17, (3-thioxo-2,3-dihydrobenzo[1,4]oxazin-4-yl)acetic acid]"
9,≥ 3,"O=C(O)CCN1C(=O)COc2ccccc21 [Example 19, 3-(3-oxo-2,3-dihydrobenzo[1,4]oxazin-4-yl)propionic acid]"
10,≥ 3,"CC(C)c1cccc2c1OC(C(C)C)C(=S)N2CCCC(=O)O (stereo not shown) [Example 20, 4-(2,8-diisopropyl-3-thioxo-2,3-dihydrobenzo[1,4]oxazin-4-yl)butyric acid]"
11,≥ 3,"CC(C)c1cccc2c1OC(C(C)C)CN2C(=O)CCC(=O)O (stereo not shown) [Example 21, 4-(2,8-diisopropyl-2,3-dihydrobenzo[1,4]oxazin-4-yl)-4-oxobutyric acid]"
12,0.3 to 3,"CC(C)C1Sc2ccccc2N(CCC(=O)O)C1=O (stereo not shown) [Example 22, 3-(2-isopropyl-3-oxo-2,3-dihydrobenzo[1,4]thiazin-4-yl)propionic acid]"
13,≥ 3,"O=C(O)CCC(=O)N1CCOc2ccccc21 [Example 23, 4-(2,3-dihydrobenzo[1,4]oxazin-4-yl)-4-oxobutyric acid]"
14,≥ 3,"O=C(O)CCCCC(=O)N1CCOc2ccccc21 [Example 27, 6-(2,3-dihydrobenzo[1,4]oxazin-4-yl)-6-oxohexanoic acid]"
15,≥ 3,"CC(C)c1cccc2c1OC(C(C)C)CN2C(=O)C(=O)O (stereo not shown) [Example 29, (2,8-diisopropyl-2,3-dihydrobenzo[1,4]oxazin-4-yl)oxoacetic acid]"
16,0.3 to 3,"CCC1Oc2c(C(C)C)cccc2N(CCC(=O)O)C1=O (stereo not shown) [Example 40, 3-(2-ethyl-8-isopropyl-3-oxo-2,3-dihydrobenzo[1,4]oxazin-4-yl)propionic acid]"
17,≥ 3,"CC(C)c1cccc2c1OC(C(C)C)C(=O)N2Cc1ccccc1C(=O)O (stereo not shown) [Example 41, 2-[(2,8-diisopropyl-3-oxo-2,3-dihydrobenzo[1,4]oxazin-4-yl)methyl]benzoic acid]"
18,0.3 to 3,"CC(C)c1cccc2c1OC(C(C)C)C(=O)N2CC(C)(C)C(=O)O (stereo not shown) [Example 42, 3-(2,8-diisopropyl-3-oxo-2,3-dihydrobenzo[1,4]oxazin-4-yl)-2,2-dimethylpropionic acid]"
